Data on 15 compounds can be found in PMC9926489, “Chemical Optimization of Selective Pseudomonas aeruginosa LasB Elastase Inhibitors and Their Impact on LasB-Mediated Activation of IL-1β in Cellular and Animal Infection Models” (ACS Infectious Diseases, 2023).

In brackets after ≈: the same amount, converted by molar mass.

One series concerns the target T1, purified LasB (Pseudomonas aeruginosa, UniProt P14756).
T1 construct: The mature LasB protein is a 33 kDa metalloprotease, which is secreted from P. aeruginosa; host or cells: P. aeruginosa PAO1 (native secretion, culture supernatant)
The series can be described thus: LasB inhibition, fluorimetric Abz-AGLA-Nba hydrolysis assay with purified LasB. The class given is biochemical. An excerpt: (§1) This was chosen as the starting point for a medicinal chemistry-driven lead optimization program aiming to improve potency and solubility whilst retaining selectivity against host metalloenzymes. All synthesized compounds were initially assessed in a fluorimetric assay measuring hydrolysis of a fluorogenic substrate Abz-Ala-Gly-Leu-Ala-4-nitrobenzylamide (Abz-AGLA-Nba) by purified LasB and IC50 values determined (Tables 1 and 2). Inhibition of elastin hydrolytic activity was confirmed using an orthogonal assay measuring hydrolysis of Elastin Congo Red (ECR) complex by LasB prepared directly from a P. aeruginosa culture supernatant (Tables 1 and 2). […] Aqueous solubility was determined for most compounds (Tables 1 and 2).
Native LasB protein was purified from culture supernatants of P. aeruginosa strain PAO1 (Charles River Laboratories, U.K.). Briefly, the sample was concentrated by ultrafiltration and the protein was purified by chromatography using an anion exchange (pH 8.5) step followed by gel filtration. This procedure yielded an enzyme preparation (0.8 mg/mL) of >98% purity. The enzyme was stored at −80 °C.
LasB inhibition assays were performed using purified LasB enzyme (1 ng/well) for compound screening or using culture supernatants (prepared as described in the ECR assay) for testing LasB variants. Hydrolysis of the fluorogenic peptide substrate 2-aminobenzoyl-Ala-Gly-Leu-Ala-4-nitrobenzylamide (Abz-AGLA-Nba; Peptide International) in 50 mM Tris-HCl (pH 7.4), supplemented with 2.5 mM CaCl2 was followed using an Envision microplate reader (PerkinElmer) at 315 nm excitation and 430 nm emission. For screening of lead compounds, assays were performed in the presence of 0.01% Triton X-100 with a range of inhibitor concentrations from 0.003 to 3.2 μM. IC50 values were determined from Hill plots using Dotmatics Studies ELN software. For the mechanism of inhibition studies, hydrolysis rates were measured in the presence of variable concentrations of substrate and inhibitor, and the inhibition constant (Ki) was determined using Dixon plot analysis.[31]

The target of series [1] is T2, LasB (P. aeruginosa PAO1 culture supernatant) (Pseudomonas aeruginosa, UniProt P14756).
T2 construct: The mature LasB protein is a 33 kDa metalloprotease, which is secreted from P. aeruginosa; endogenous in cells; host or cells: P. aeruginosa PAO1 culture supernatant, filtered and dialyzed
The series can be described thus: Elastin Congo Red (ECR) assay, elastin hydrolysis by dialyzed PAO1 culture supernatant. The class given is biochemical. The following applies: 25 μM inhibitor.
Description: as §1
Inhibition of elastin hydrolysis by native LasB, secreted in P. aeruginosa culture supernatants, was measured using the Elastin Congo Red (ECR) assay. Culture supernatants from P. aeruginosa strain PAO1, grown in LB medium at 37 °C for 24 h, were filtered and dialyzed against 50 mM Tris-HCl pH 7.4, 2.5 mM CaCl2 solution at 4 °C and supplemented with 0.01%Triton X-100, 10 mg/mL ECR (Sigma) and 25 μM inhibitor compounds. The reaction mixture was incubated for 16 h at 37 °C with shaking before centrifugation and recovery of the supernatant and measurement of solubilized congo red by absorbance (OD495) using an EnSight multimode plate reader (PerkinElmer).

Series [2] can be described thus: Thermodynamic solubility in PBS (pH 7.4). Conditions: aqueous buffer, thermodynamic from solid. The class given is physicochemical.
Series [3] concerns the target T3, secreted LasB in P. aeruginosa PAO1-infected THP-1 macrophages (Pseudomonas aeruginosa, UniProt P14756).
T3 construct: The mature LasB protein is a 33 kDa metalloprotease, which is secreted from P. aeruginosa; endogenous in cells; host or cells: P. aeruginosa PAO1 infecting human THP-1 macrophages (MOI 10:1); supernatant after 2 h
Nature of the series: LasB activity (Sub115 hydrolysis) in supernatants of P. aeruginosa-infected THP-1 macrophages. The class given is cell-based. The following applies: infected THP-1 cells, 5 μM. As for the experimental part: (§2) Further to showing in vitro inhibition of LasB-mediated pro-IL-1β proteolysis, experiments were performed to determine the effect of compounds 12 and 16 on IL-1β activation and functionality in human macrophage cell cultures infected with P. aeruginosa PAO1, or an isogenic lasB deletion mutant thereof (ΔlasB). In these experiments, the levels of LasB activity in culture supernatants were measured via hydrolysis of the Sub115 fluorescent peptide, while the effect of LasB activity on IL-1β activation (functionality) was measured using a luciferase reporter cell line sensitive to IL-1β induction (Figure 3).
Human THP-1 macrophages were cultured by conventional methods then, pre-infection, culture media were replaced by RPMI lacking phenol red and antibiotics. Compounds VX-765 (caspase-1 inhibitor, developed by Vertex) and/or LasB inhibitors were added, immediately followed by inoculation with P. aeruginosa PAO1 or an isogenic lasB deletion mutant (ΔlasB), previously grown in Luria broth to late exponential phase (OD600 = 1.2) then washed and diluted in PBS, at a multiplicity of infection (MOI) of 10 to 1. After 2 h post-infection, 50 μL aliquots of supernatant were removed and used to quantitate both LasB activity and IL-1β functionality. To determine LasB activity, 50 μL of supernatant was added to Sub115 IL-1β peptide and hydrolysis of Sub115 was monitored spectrophotometrically with excitation at 355 nm and emission at 450 nm, as described above. Results were expressed as relative fluorescence units (RFU).
In the first variation, experimental infections were performed with P. aeruginosa PAO1 and ΔlasB bacteria incubated with varying quantities of inhibitor at final concentrations ranging from 0.5 to 8 μM. In the second, cells were treated and infected in the same manner and also treated with 5 μM VX-765 to provide a control for IL-1β activation by the inflammasome pathway.

Another series relates to IL-1β activation. Nature of the series: IL-1β activation in P. aeruginosa-infected THP-1 macrophages (HEK IL-1R-lux reporter assay). Conditions: infected THP-1 cells, 5 μM. The class given is cell-based, human. As to the method: as §2
Human THP-1 macrophages were cultured by conventional methods then, pre-infection, culture media were replaced by RPMI lacking phenol red and antibiotics. […] After 2 h post-infection, 50 μL aliquots of supernatant were removed and used to quantitate both LasB activity and IL-1β functionality. To determine LasB activity, 50 μL of supernatant was added to Sub115 IL-1β peptide and hydrolysis of Sub115 was monitored spectrophotometrically with excitation at 355 nm and emission at 450 nm, as described above. Results were expressed as relative fluorescence units (RFU).
To determine IL-1β functionality, generation of an IL-1 signal was quantified by adding 50 μL of supernatant to HEK IL-1R-lux reporter cells cultured in RPMI supplemented with 5% heat-inactivated FBS, 200 μg/mL penicillin/streptomycin, 200 μg/mL hygromycin, 100 μg/mL zeomycin, and 0.5 μg/mL puromycin. No bacteria survived in this antibiotic condition; 18 h post-treatment, IL-1β-dependent luciferase induction was assayed by luminescence measured with D-luciferin substrate (Steady-Luc, Biotium) on a multimode reader (PerkinElmer) and expressed as relative luminescence units (RU), as previously described.[16]
In the first variation, experimental infections were performed with P. aeruginosa PAO1 and ΔlasB bacteria incubated with varying quantities of inhibitor at final concentrations ranging from 0.5 to 8 μM. […]

As a reminder, the IC50 is the concentration needed to halve the response being measured. Read a low IC50 as inhibition by little substance. What is called solubility is how much of the substance goes into solution per volume. Low readings indicate a poorly soluble substance, high ones a readily soluble substance.

T2 sequence (P14756 198-498): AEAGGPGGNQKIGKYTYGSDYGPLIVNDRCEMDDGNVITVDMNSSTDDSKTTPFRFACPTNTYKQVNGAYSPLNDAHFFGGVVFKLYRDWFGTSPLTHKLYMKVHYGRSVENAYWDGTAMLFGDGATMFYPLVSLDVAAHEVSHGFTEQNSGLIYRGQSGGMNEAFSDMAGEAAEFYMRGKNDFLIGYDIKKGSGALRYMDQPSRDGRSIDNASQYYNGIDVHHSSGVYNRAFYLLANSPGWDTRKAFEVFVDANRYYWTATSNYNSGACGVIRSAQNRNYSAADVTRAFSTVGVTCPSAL
T1 sequence (P14756 198-498): as above
T3 sequence (P14756 198-498): as above

For the compound `COc1cc2sc(CNC(=O)C3(CC(=O)O)Cc4cc(F)c(F)cc4C3)nc2cc1OCC1CC[N+](C)(C)CC1` [Compound 14], the 50% inhibitory concentration (IC50) on purified LasB worked out at 90 nM. Further, the “Elastin hydrolysis @ 25 μM (% inh)” value in series [1] was 72 % inh. Besides, the concentration in solution in series [2] (solubility) came to 17800 µg/mL.
The like results for `CN(C)CCOc1ccc2sc(CNC(=O)C3(CC(=O)O)Cc4ccccc4C3)nc2c1` [Compound 7] were, in that order, 670 nM, 42 % inh and 4200 µg/mL (≈ 9.26 mM).
The corresponding values for `COc1cc2sc(CNC(=O)C3(CC(=O)O)Cc4ccccc4C3)nc2cc1OCC1CC[N+](C)(C)CC1` [Compound 13] are 130 nM, 66 % inh and 15800 µg/mL.
As to `C[N+]1(C)CCN(c2ccc3nc(CNC(=O)C4(CC(=O)O)Cc5ccccc5C4)sc3c2)CC1` [Compound 8], half-maximal inhibition against purified LasB (IC50) required 1350 nM. In addition, the “Elastin hydrolysis @ 25 μM (% inh)” value in series [1] was 33 % inh. The amount in solution in series [2] (solubility) came to 18700 µg/mL.
Turning to `COc1ccc2sc(CNC(=O)C3(CC(=O)O)Cc4ccccc4C3)nc2c1` [Compound 3], the IC50 on purified LasB is 150 nM. Moreover, the “Elastin hydrolysis @ 25 μM (% inh)” value in series [1] came out at 64 % inh.
On purified LasB, `COc1cc2nc(CNC(=O)C3(CC(=O)O)Cc4ccccc4C3)sc2cc1OC` [Compound 4] gave an IC50 of 20 nM. The “Elastin hydrolysis @ 25 μM (% inh)” value in series [1] came to 82 % inh. Further, the solubility in series [2] came out at 2000 µg/mL (≈ 4.69 mM).
Compound `O=C(O)CC1(C(=O)NCc2nc3ccccc3s2)Cc2cc(F)c(F)cc2C1` [Compound 10] came in with an IC50 at purified LasB of 140 nM. For the same compound, the “Elastin hydrolysis @ 25 μM (% inh)” value in series [1] was found to be 66 % inh. In series [2], this compound had a solubility of 600 µg/mL (≈ 1.49 mM).
`COc1cc2sc(CNC(=O)C3(CC(=O)O)Cc4ccccc4C3)nc2cc1OCCCN(C)C` [Compound 11] came in with a 50% inhibitory concentration (IC50) against purified LasB of 80 nM. Further, the “Elastin hydrolysis @ 25 μM (% inh)” value in series [1] stood at 69 % inh.
Take `O=C(O)CC1(C(=O)NCc2nc3cc4c(cc3s2)OCO4)Cc2ccccc2C1` [Compound 5]: at purified LasB, the IC50 came to 120 nM. In series [1], the “Elastin hydrolysis @ 25 μM (% inh)” value is listed as 75 % inh. The amount in solution in series [2] (solubility) came to 2000 µg/mL (≈ 4.87 mM).
As for `C[N+](C)(C)CCOc1ccc2sc(CNC(=O)C3(CC(=O)O)Cc4ccccc4C3)nc2c1` [Compound 9], at purified LasB, inhibition was half-maximal at 820 nM (IC50). Further, in series [1], the “Elastin hydrolysis @ 25 μM (% inh)” value amounted to 40 % inh. In series [2], this compound displayed a solubility of 18100 µg/mL.
`O=C(O)CC1(C(=O)NCc2nc3cc(Cl)ccc3s2)Cc2ccccc2C1` [Compound 2]: at purified LasB, the half-inhibitory concentration (IC50) turned out to be 350 nM. Besides, the “Elastin hydrolysis @ 25 μM (% inh)” value in series [1] amounted to 58 % inh.
Consider `CN1CCN(c2ccc3nc(CNC(=O)C4(CC(=O)O)Cc5ccccc5C4)sc3c2)CC1` [Compound 6], for which inhibition against purified LasB was half-maximal at 1570 nM (IC50). In addition, the “Elastin hydrolysis @ 25 μM (% inh)” value in series [1] is on record as 39 % inh. The compound also yielded a solubility in series [2] of 3400 µg/mL (≈ 7.32 mM).
As to `COc1cc2sc(CNC(=O)C3(CC(=O)O)Cc4ccccc4C3)nc2cc1OCCC[N+](C)(CCO)CCO` [Compound 15], at purified LasB, the IC50 was 190 nM. Also, the “Elastin hydrolysis @ 25 μM (% inh)” value in series [1] is given as 69 % inh. In addition, the concentration in solution in series [2] (solubility) came to 17600 µg/mL.
The like results for `O=C(O)CC1(C(=O)NCc2nc3ccccc3s2)Cc2ccccc2C1` [Compound 1] were, in that order, 410 nM, 69 % inh and 580 µg/mL (≈ 1.58 mM).
Turning to `CCO[C@@H]1OC(=O)C[C@@H]1NC(=O)[C@@H]1CCCN1C(=O)[C@@H](NC(=O)c1ccc(N)c(Cl)c1)C(C)(C)C` [VX-765, reference compound], the “effect on LasB activity” value in series [3] was “no effect”. Also, the “effect on IL-1β activation” value with IL-1β activation is given as “reduced IL-1β activation”.
